Measured values taken from ChEMBL document CHEMBL3870345, “Bioactive chemical constituents from the root bark of Morus australis” (Bioorg Med Chem Lett, 2017).
pIC50: −log10 of the molar value. In brackets after ≈: the same amount, converted by molar mass. Blank lines part the entries; values can stand above or below the molecule they belong to.

How the values were obtained:
[1] = Antiplatelet aggregatory activity against New Zealand white rabbit platelets at 10 uM preincubated for 2 to 3 mins followed by PAF-addition measured after 4 mins by turbidometric method relative to vehicle control; assay type: functional, Oryctolagus cuniculus, Platelet
[2] = Cytotoxicity against mouse RAW264.7 cells assessed as cell viability at 25 ug/ml measured after 24 hrs in presence of LPS by MTT assay (reference value: 96.3 +/- 1%); assay type: toxicity; conditions: read-out: Activity
[3] = Cytotoxicity against mouse RAW264.7 cells assessed as cell viability at 12.5 ug/ml measured after 24 hrs in presence of LPS by MTT assay (reference value: 96.3 +/- 1%); assay type: toxicity; conditions: read-out: Activity
[4] = Antiplatelet aggregatory activity against New Zealand white rabbit platelets at 100 uM preincubated for 2 to 3 mins followed by ADP-addition measured after 4 mins by turbidometric method relative to vehicle control; assay type: functional, Oryctolagus cuniculus, Platelet
[5] = Antiplatelet aggregatory activity against New Zealand white rabbit platelets at 100 uM preincubated for 2 to 3 mins followed by arachidonic acid -addition measured after 4 mins by turbidometric method relative to vehicle control; assay type: functional, Oryctolagus cuniculus, Platelet
[6] = Antiplatelet aggregatory activity against New Zealand white rabbit platelets at 100 uM preincubated for 2 to 3 mins followed by PAF-addition measured after 4 mins by turbidometric method relative to vehicle control; assay type: functional, Oryctolagus cuniculus, Platelet
[7] = Antiplatelet aggregatory activity against New Zealand white rabbit platelets preincubated for 2 to 3 mins followed by ADP-addition measured after 4 mins by turbidometric method; assay type: functional, cell-based, Oryctolagus cuniculus; conditions: platelet
[8] = Antiplatelet aggregatory activity against New Zealand white rabbit platelets preincubated for 2 to 3 mins followed by arachidonic acid-addition measured after 4 mins by turbidometric method; assay type: functional, cell-based, Oryctolagus cuniculus; conditions: platelet
[9] = Cytotoxicity against mouse RAW264.7 cells assessed as cell viability at 1.562 ug/ml measured after 24 hrs in presence of LPS by MTT assay (reference value: 96.3 +/- 1%); assay type: toxicity; conditions: read-out: Activity
[10] = Cytotoxicity against mouse RAW264.7 cells assessed as cell viability at 3.125 ug/ml measured after 24 hrs in presence of LPS by MTT assay (reference value: 96.3 +/- 1%); assay type: toxicity; conditions: read-out: Activity
[11] = Cytotoxicity against mouse RAW264.7 cells assessed as cell viability at 6.25 ug/ml measured after 24 hrs in presence of LPS by MTT assay (reference value: 96.3 +/- 1%); assay type: toxicity; conditions: read-out: Activity
[12] = Cytotoxicity against mouse RAW264.7 cells assessed as cell viability at 50 ug/ml measured after 24 hrs in presence of LPS by MTT assay (reference value: 96.3 +/- 1%); assay type: toxicity; conditions: read-out: Activity
RAW264.7 [13] = test: Inhibition of LPS-induced NO production in mouse RAW264.7 cells at 1.562 ug/ml measured after 24 hrs by Griess assay relative to LPS-treated control; assay type: functional; conditions: RAW264.7, 24 h
RAW264.7 [14] = test: Inhibition of LPS-induced NO production in mouse RAW264.7 cells at 3.125 ug/ml measured after 24 hrs by Griess assay relative to LPS-treated control; assay type: functional; conditions: RAW264.7, 24 h
RAW264.7 [15] = test: Inhibition of LPS-induced NO production in mouse RAW264.7 cells at 6.25 ug/ml measured after 24 hrs by Griess assay relative to LPS-treated control; assay type: functional; conditions: RAW264.7, 24 h
RAW264.7 [16] = test: Inhibition of LPS-induced NO production in mouse RAW264.7 cells measured after 24 hrs by Griess assay; assay type: functional, cell-based; conditions: for IC50: RAW264.7, 24 h
RAW264.7 [17] = test: Inhibition of LPS-induced NO production in mouse RAW264.7 cells at 12.5 ug/ml measured after 24 hrs by Griess assay relative to LPS-treated control; assay type: functional; conditions: RAW264.7, 24 h
RAW264.7 [18] = test: Inhibition of LPS-induced NO production in mouse RAW264.7 cells at 25 ug/ml measured after 24 hrs by Griess assay relative to LPS-treated control; assay type: functional; conditions: RAW264.7, 24 h
[19] = Cytotoxicity against mouse RAW264.7 cells assessed as cell viability at 1.563 ug/ml measured after 24 hrs in presence of LPS by MTT assay (reference value: 96.3 +/- 1%); assay type: toxicity; conditions: read-out: Activity
RAW264.7 [20] = test: Inhibition of LPS-induced NO production in mouse RAW264.7 cells at 1.563 ug/ml measured after 24 hrs by Griess assay relative to LPS-treated control; assay type: functional; conditions: RAW264.7, 24 h
[21] = Antiplatelet aggregatory activity against New Zealand white rabbit platelets at 50 uM preincubated for 2 to 3 mins followed by arachidonic acid -addition measured after 4 mins by turbidometric method relative to vehicle control; assay type: functional, Oryctolagus cuniculus, Platelet

SMILES: CCCCCCCCCCCCCCCCCCNC(=O)OCC(COP(=O)([O-])OCC[n+]1ccsc1)OC (centres undefined)
Activity [1]: 85.96%

SMILES: O=[N+]([O-])/C=C\c1ccc(O)cc1
viability at 24 h, 25 ug/ml [2]: 46.9% | viability at 24 h, 12.5 ug/ml [3]: 48.3% | Activity [4]: 96.35% | Activity [5]: 96.03% | Activity [6]: 73.02% | pIC50 [7]: 5.01 | pIC50 [8]: 5.01 | viability at 24 h, 1.562 ug/ml [9]: 94.5% | viability at 24 h, 3.125 ug/ml [10]: 89% | viability at 24 h, 6.25 ug/ml [11]: 82.2% | viability at 24 h, 50 ug/ml [12]: 11.9% | inhibition at 1.562 µg/mL (RAW264.7 [13]): 46.4% | inhibition at 3.125 µg/mL (RAW264.7 [14]): 59.6% | inhibition at 6.25 µg/mL (RAW264.7 [15]): 60% | inhibition (RAW264.7 [16]): Dose-dependent effect | IC50 (RAW264.7 [16]): 2.1 µg/mL (≈ 12.7 µM)

SMILES: C=C(C)C(O)CC[C@]1(C)C=Cc2c(cc3oc(-c4ccc(O)cc4)cc(=O)c3c2O)O1 (some centres undefined)
Activity [4]: <60% | Activity [5]: <60% | Activity [6]: <60%

SMILES: CC(C)=CCC/C(C)=C/Cc1c(-c2ccc(O)cc2O)oc2c(CC=C(C)C)c(O)cc(O)c2c1=O
viability at 24 h, 25 ug/ml [2]: 96.8% | viability at 24 h, 12.5 ug/ml [3]: 97.1% | Activity [4]: 96.37% | Activity [5]: 89.66% | Activity [6]: 90.15% | viability at 24 h, 3.125 ug/ml [10]: 100% | viability at 24 h, 6.25 ug/ml [11]: 99.7% | viability at 24 h, 50 ug/ml [12]: 67% | inhibition at 3.125 µg/mL (RAW264.7 [14]): 30% | inhibition at 6.25 µg/mL (RAW264.7 [15]): 33.7% | inhibition at 12.5 µg/mL (RAW264.7 [17]): 34.1% | inhibition (RAW264.7 [16]): Dose-dependent effect | IC50 (RAW264.7 [16]): > 25 µg/mL | inhibition at 25 µg/mL (RAW264.7 [18]): 35%

SMILES: CC(=O)Oc1ccc(-c2oc3c4c(cc(O)c3c(=O)c2CC=C(C)C)OC(C)(C)C=C4)c(OC(C)=O)c1
viability at 24 h, 25 ug/ml [2]: 13.9% | viability at 24 h, 12.5 ug/ml [3]: 36.6% | Activity [4]: 93.27% | Activity [5]: 90.01% | Activity [6]: 90.22% | pIC50 [7]: 4.99 | viability at 24 h, 3.125 ug/ml [10]: 91% | viability at 24 h, 6.25 ug/ml [11]: 80.3% | viability at 24 h, 50 ug/ml [12]: 11.7% | viability at 24 h, 1.563 ug/ml [19]: 96% | inhibition at 3.125 µg/mL (RAW264.7 [14]): 58.7% | inhibition at 6.25 µg/mL (RAW264.7 [15]): 69.2% | inhibition at 1.563 µg/mL (RAW264.7 [20]): 40.4% | inhibition (RAW264.7 [16]): Dose-dependent effect | IC50 (RAW264.7 [16]): 2.4 µg/mL (≈ 4.76 µM)

SMILES: C=C(C)C(=O)c1c(-c2ccc(O)cc2O)oc2cc3c(c(O)c2c1=O)C=CC(C)(C)O3
Activity [4]: <60% | Activity [5]: <60% | Activity [6]: <60%

SMILES: CC(=O)Oc1ccccc1C(=O)O [ASPIRIN]
Activity [21]: 90.62%

Second part, led by results:

IC50 (RAW264.7 [16]): 4.5 µg/mL (≈ 10.8 µM)
SMILES: CC(C)=CC1Oc2cc(O)ccc2-c2oc3c4c(cc(O)c3c(=O)c21)OC(C)(C)C=C4 (centres undefined) [CYCLOMORUSIN]
viability at 24 h, 25 ug/ml [2]: 57.6% | viability at 24 h, 12.5 ug/ml [3]: 81.9% | Activity [4]: <60% | Activity [5]: <60% | Activity [6]: <60% | viability at 24 h, 3.125 ug/ml [10]: 86.3% | viability at 24 h, 6.25 ug/ml [11]: 86.2% | viability at 24 h, 50 ug/ml [12]: 14% | inhibition at 3.125 µg/mL (RAW264.7 [14]): 46.6% | inhibition at 6.25 µg/mL (RAW264.7 [15]): 54.1% | inhibition at 12.5 µg/mL (RAW264.7 [17]): 73.7% | inhibition (RAW264.7 [16]): Dose-dependent effect

IC50 (RAW264.7 [16]): 4.1 to 4.6 µg/mL (≈ 9.35 to 10.5 µM)
SMILES: CC(C)(O)CCc1c(-c2ccc(O)cc2O)oc2c3c(cc(O)c2c1=O)OC(C)(C)C=C3 [MORUSINOL]
viability at 24 h, 25 ug/ml [2]: 36.9 to 49.2% | viability at 24 h, 12.5 ug/ml [3]: 69.5 to 82.1% | Activity [4]: 57.88 - 78.98% | Activity [5]: 50.5% | Activity [6]: <60% | viability at 24 h, 3.125 ug/ml [10]: 95.9% | viability at 24 h, 6.25 ug/ml [11]: 81.9 to 91.3% | viability at 24 h, 50 ug/ml [12]: 9.9 to 14.4% | inhibition at 3.125 µg/mL (RAW264.7 [14]): 42 to 45.8% | inhibition at 6.25 µg/mL (RAW264.7 [15]): 59 to 62.5% | inhibition at 12.5 µg/mL (RAW264.7 [17]): 81.4% | inhibition (RAW264.7 [16]): Dose-dependent effect

IC50 (RAW264.7 [16]): > 12.5 µg/mL
SMILES: CC(C)=CCc1c(-c2ccc(O)cc2O)oc2c3c(cc(O)c2c1=O)OC(C)(C)C=C3 [MORUSIN]
viability at 24 h, 25 ug/ml [2]: 69.6% | viability at 24 h, 12.5 ug/ml [3]: 73.8% | Activity [4]: 60.22% | Activity [5]: <60% | Activity [6]: <60% | viability at 24 h, 3.125 ug/ml [10]: 94.5% | viability at 24 h, 6.25 ug/ml [11]: 83.3% | viability at 24 h, 50 ug/ml [12]: 23.1% | inhibition at 3.125 µg/mL (RAW264.7 [14]): 15.1% | inhibition at 6.25 µg/mL (RAW264.7 [15]): 23.3% | inhibition at 12.5 µg/mL (RAW264.7 [17]): 39.3% | inhibition (RAW264.7 [16]): Dose-dependent effect

IC50 (RAW264.7 [16]): 6.3 µg/mL (≈ 14.4 µM)
SMILES: CC1(C)C=Cc2c(cc(O)c3c(=O)c4c(oc23)-c2ccc(O)cc2OC(C(C)(C)O)C4)O1 (centres undefined) [NEOCYCLOMORUSIN]
viability at 24 h, 25 ug/ml [2]: 40.8% | viability at 24 h, 12.5 ug/ml [3]: 48.8% | Activity [4]: 98.57% | Activity [5]: 99.7% | Activity [6]: 99.63% | viability at 24 h, 3.125 ug/ml [10]: 98.3% | viability at 24 h, 6.25 ug/ml [11]: 82.4% | viability at 24 h, 50 ug/ml [12]: 12.8% | inhibition at 3.125 µg/mL (RAW264.7 [14]): 41.2% | inhibition at 6.25 µg/mL (RAW264.7 [15]): 50.8% | inhibition (RAW264.7 [16]): Dose-dependent effect
